From publication PMC9295786, “Discovery of potent BET bromodomain 1 stereoselective inhibitors using DNA-encoded chemical library selections” (Proceedings of the National Academy of Sciences of the …, 2022)

Columns and labels:
BRDT-BD2 = target: T1, BRDT-BD2 (Homo sapiens, UniProt Q58F21); assay: AlphaScreen competition assay with biotinylated JQ1; format: binding; conditions: read-out: BRDT-BD2 IC50
T1 construct: two similar tandem bromodomains (BD1 and BD2); made in house; host or cells: bacteria (pET15b or pET28b vector)

BRD4-BD2 = target: T2, BRD4-BD2 (Homo sapiens, UniProt O60885); assay: as above; format: binding; conditions: read-out: BRD4-BD2 IC50
T2 construct: two similar tandem bromodomains (BD1 and BD2); made in house; host or cells: bacteria (pET15b or pET28b vector)

[1] = Metabolic stability assay in liver microsomes (MLM); format: in vitro ADME; conditions: mouse liver microsomes 0.5 mg protein/mL, compound 2.0 μM, NADPH 1.0 mM; read-out: MLM t1/2 (half-life)
[2] = Metabolic stability assay in liver microsomes (HLM); format: in vitro ADME; conditions: human liver microsomes 0.5 mg protein/mL, compound 2.0 μM, NADPH 1.0 mM; read-out: HLM t1/2 (half-life)
BRD2-BD1 = target: T3, BRD2-BD1 (Homo sapiens, UniProt P25440); assay: BromoKdELECT assay; format: binding
T3 construct: two similar tandem bromodomains (BD1 and BD2); purchased Eurofins DiscoverX (Fremont, CA); host or cells: E. coli host derived from the BL21 strain, T7 phage

BRD2-BD2 = target: T4, BRD2-BD2 (Homo sapiens, UniProt P25440); assay: BromoKdELECT assay; format: binding
T4 construct: two similar tandem bromodomains (BD1 and BD2); purchased Eurofins DiscoverX (Fremont, CA); host or cells: E. coli host derived from the BL21 strain, T7 phage

BRD3-BD2 = target: T5, BRD3-BD2 (Homo sapiens, UniProt Q15059); assay: BromoKdELECT assay; format: binding
T5 construct: two similar tandem bromodomains (BD1 and BD2); purchased Eurofins DiscoverX (Fremont, CA); host or cells: E. coli host derived from the BL21 strain, T7 phage

BRD3-BD1 = target: T6, BRD3-BD1 (Homo sapiens, UniProt Q15059); assay: BromoKdELECT assay; format: binding
T6 construct: two similar tandem bromodomains (BD1 and BD2); purchased Eurofins DiscoverX (Fremont, CA); host or cells: E. coli host derived from the BL21 strain, T7 phage

MV4;11 cells [3] = assay: Cell viability by CellTiterGlo; format: cell-based; conditions: Homo sapiens, MV4-11
MOLM-13 cells [4] = assay: Cell viability by CellTiterGlo; format: cell-based; conditions: Homo sapiens, MOLM-13; 72 h of treatment, CellTiterGlo, normalized to DMSO; read-out: Viability IC50 MOLM-13
THP1 cells = assay: Cell viability by CellTiterGlo; format: cell-based; conditions: Homo sapiens, THP-1; 72 h of treatment, CellTiterGlo, normalized to DMSO; read-out: Viability IC50 THP1
Kasumi1 cells = assay: Cell viability by CellTiterGlo; format: cell-based; conditions: Homo sapiens, Kasumi 1; 72 h of treatment, CellTiterGlo, normalized to DMSO; read-out: Viability IC50 Kasumi1
MV4;11 cells [5] = assay: Cell cycle analysis by flow cytometry; format: cell-based; conditions: 24 h of treatment at the IC50
MOLM-13 cells [6] = assay: Cell cycle analysis by flow cytometry; format: cell-based; conditions: 24 h of treatment at the IC50
MV4;11 cells [7] = assay: Apoptosis detection (Annexin V) by flow cytometry; format: cell-based; conditions: 72 h of treatment
MOLM-13 cells [8] = assay: Apoptosis detection (Annexin V) by flow cytometry; format: cell-based; conditions: 72 h of treatment
[9] = tested on: MYC expression in MOLM-13 cells; assay: MYC expression by RT-qPCR; format: cell-based; conditions: 8 h of treatment
[10] = tested on: MYC expression in MV4;11 cells; assay: MYC expression by RT-qPCR; format: cell-based; conditions: 8 h of treatment
BRD4-BD1 [11] = target: T7, BRD4-BD1 (Homo sapiens, UniProt O60885); assay: AlphaScreen competition assay with biotinylated JQ1; format: binding; design: the bromodomain 1 (BD1) of BRD4; made in house; host or cells: bacteria (pET15b or pET28b vector)
BRDT-BD1 [12] = target: T8, BRDT-BD1 (Homo sapiens, UniProt Q58F21); assay: as above; format: binding; design: the first bromodomain of BRDT (BRDT-BD1); made in house; host or cells: bacteria (pET15b or pET28b vector)
BRD4-BD1 [13] = target: T7, BRD4-BD1; assay: BromoKdELECT assay; format: binding; design: the bromodomain 1 (BD1) of BRD4; purchased Eurofins DiscoverX (Fremont, CA); host or cells: E. coli host derived from the BL21 strain, T7 phage
BRDT-BD1 [14] = target: T8, BRDT-BD1; assay: BromoKdELECT assay; format: binding; design: the first bromodomain of BRDT (BRDT-BD1); purchased Eurofins DiscoverX (Fremont, CA); host or cells: E. coli host derived from the BL21 strain, T7 phage

T6 sequence (Q15059 34-140 limits assumed): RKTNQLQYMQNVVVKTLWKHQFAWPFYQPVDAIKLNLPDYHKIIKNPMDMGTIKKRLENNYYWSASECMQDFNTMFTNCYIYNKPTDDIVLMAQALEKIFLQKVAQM
T3 sequence (P25440 74-180 limits assumed): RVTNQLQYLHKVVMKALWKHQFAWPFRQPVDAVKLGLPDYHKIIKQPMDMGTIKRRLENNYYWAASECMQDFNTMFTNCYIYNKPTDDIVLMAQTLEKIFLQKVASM
T4 sequence (P25440 344-453 limits assumed): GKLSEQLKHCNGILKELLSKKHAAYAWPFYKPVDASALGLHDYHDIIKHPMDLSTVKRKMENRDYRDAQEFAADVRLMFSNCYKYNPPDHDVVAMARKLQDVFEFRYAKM
T5 sequence (Q15059 306-415 limits assumed): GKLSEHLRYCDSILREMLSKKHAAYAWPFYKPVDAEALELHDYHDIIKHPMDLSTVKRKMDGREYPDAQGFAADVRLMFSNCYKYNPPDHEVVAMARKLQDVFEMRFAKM

Compound: CNC(=O)[C@@H](CC1CCN(C(=O)Cc2ccc3[nH]c(=O)cc(C)c3c2)CC1)NC(=O)c1ccc(-c2ccc(C)cc2C)cn1 [CDD-787]
- IC50 (BRDT-BD2): 10400 nM
- IC50 (BRD4-BD2): 12900 nM
- half-life at 2 μM [1]: 13 min
- half-life at 2 μM [2]: 33 min
- Kd (BRD2-BD1; BromoKdELECT): 0.26 nM
- IC50 (BRD2-BD1; BromoKdELECT, read-out: IC50 against BRD2-BDT1): 0.26 nM
- BRD2-BD1 selectivity (BRD2-BD1; over BRD2-BD2, BromoKdELECT Kd ratio): 420 fold
- Kd (BRD2-BD2): 110 nM
- Kd (BRD3-BD2): 770 nM
- Kd (BRD3-BD1; BromoKdELECT): 0.13 nM
- IC50 (BRD3-BD1; BromoKdELECT, read-out: IC50 against BRD3-BD1): 0.13 nM
- BRD3-BD1 selectivity (BRD3-BD1; over BRD3-BD2, BromoKdELECT Kd ratio): 5,920 fold
- IC50 (MV4;11 cells [3]; 72 h of treatment, CellTiterGlo, normalized to DMSO, read-out: Viability IC50 MV4;11): 8.3 nM
- EC50 (MV4;11 cells [3]; Table S6, NE = not efficient, read-out: MV4-11 EC50 (viability)): 8 nM
- IC50 (MOLM-13 cells [4]): 16 nM
- IC50 (THP1 cells): 11.8 nM
- IC50 (Kasumi1 cells): 8.4 nM
- Effect on the cell cycle, MV4;11 (MV4;11 cells [5]): G1 arrest
- Effect on the cell cycle, MOLM-13 (MOLM-13 cells [6]): G1 arrest
- Induction of apoptosis (Annexin V+ cells), MV4;11 (MV4;11 cells [7]): apoptosis
- Induction of apoptosis (Annexin V+ cells), MOLM-13 (MOLM-13 cells [8]): apoptosis
- MYC expression, MOLM-13 [9]: suppressed
- MYC expression, MV4;11 [10]: suppressed
- BRD4-BD1 vs. BRD4-BD2 fold (BRD4-BD1 selectivity) (BRD4-BD1 [11]; ratio of AlphaScreen IC50 values, NE = not efficient): 3909 fold
- IC50 (BRD4-BD1 [11]; read-out: BRD4-BD1 IC50): 3.3 nM
- IC50 (BRDT-BD1 [12]): 2.1 nM
- fold more potent than the S-enantiomer (CDD-786) in inhibiting BRDT-BD1 (BRDT-BD1 [12]): 50 fold
- fold more potent than (+)-JQ1 for BRDT-BD1 (BRDT-BD1 [12]; AlphaScreen): 22 fold
- fold more selective than (+)-JQ1 for BRDT-BD1 (BRDT-BD1 [12]; AlphaScreen): ~2,200 fold
- Kd (BRD4-BD1 [13]): 0.29 nM
- IC50 (BRD4-BD1 [13]; read-out: IC50 against BRD4-BD1): 0.29 nM
- Kd (BRDT-BD1 [14]): 0.22 nM
- IC50 (BRDT-BD1 [14]; read-out: IC50 against BRDT-BD1): 0.22 nM
